Literature values in patent US20150366832A1, “CARBIDOPA/LEVODOPA GASTRORETENTIVE DRUG DELIVERY” (INTEC PHARMA LTD., priority 2008, published 2015).

## C[C@@](Cc1ccc(O)c(O)c1)(NN)C(=O)O [Carbidopa]
Carbidopa given with Levodopa
  reduction of the amount of Levodopa required to produce a given response: about 75%
human, in vivo
  crossing of the blood-brain barrier: does not cross the blood-brain barrier

## N[C@@H](Cc1ccc(O)c(O)c1)C(=O)O [Levodopa]
Carbidopa and Levodopa administered together
  half-life: about 1.5 hours
Without Carbidopa
  plasma half-life: about 50 minutes
